The record followed here is patent publication US10660877B2 (BRISTOL-MYERS SQUIBB COMPANY, priority 2016, dated 2020).

Structures are written as SMILES. Where two headings read alike, the source gives them in different places.

The target in test [1] is human TLR9 (Homo sapiens (Human), UniProt Q9NR96). Briefly: TLR9 inhibition reporter assay (HEK-Blue cells, SEAP reporter, ODN2006 stimulation).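 Also: compounds tested over 0.05 nM to 50 µM, 22 h incubation, inhibition taken as SEAP signal drop from agonist plus DMSO wells toward a known inhibitor control.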
Test [2] addresses human TLR7 (Homo sapiens (Human), UniProt Q9NYK1). Briefly: TLR7 inhibition reporter assay (HEK-Blue cells, SEAP reporter, gardiquimod stimulation). It counts as cell-based.
Protocol: TLR7/8/9 Inhibition Reporter Assays
Briefly, cells are seeded into Greiner 384 well plates (15000 cells per well for TLR7, 20,000 for TLR8 and 25,000 for TLR9) and then treated with test compounds in DMSO to yield a final dose response concentration range of 0.05 nM-50 μM. […] After a 22 hour incubation at 37° C., 5% CO2, SEAP levels are determined with the addition of HEK-Blue™ Detection reagent (Invivogen), a cell culture medium that allows for detection of SEAP, according to manufacturer's specifications. The percent inhibition is determined as the % reduction in the HEK-Blue signal present in wells treated with agonist plus DMSO alone compared to wells treated with a known inhibitor.
Test [3] has as its target human TLR8 (Homo sapiens (Human), UniProt Q9NR97). Briefly: TLR8 inhibition reporter assay (HEK-Blue cells, SEAP reporter, R848 stimulation).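 Also: compounds tested from 0.05 nM to 50 µM, 22 h at 37 °C, SEAP measured with HEK-Blue Detection, inhibition relative to agonist plus DMSO versus a known inhibitor.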 For orientation: In a reporter assay the amount or activity of a reporter protein is the signal.
The mark [4] stands for this setting: read-out: TLR9 IC50, HEK-Blue cells overexpressing human TLR9, ODN2006 5 nM.
Where [5] appears, read: HEK-Blue cells overexpressing human TLR7, gardiquimod 7.5 μM.
[6] abbreviates: read-out: TLR8 IC50, HEK-Blue cells overexpressing human TLR8, R848 15.9 μM.

Sequence of human TLR8 (Q9NR97 27-1041): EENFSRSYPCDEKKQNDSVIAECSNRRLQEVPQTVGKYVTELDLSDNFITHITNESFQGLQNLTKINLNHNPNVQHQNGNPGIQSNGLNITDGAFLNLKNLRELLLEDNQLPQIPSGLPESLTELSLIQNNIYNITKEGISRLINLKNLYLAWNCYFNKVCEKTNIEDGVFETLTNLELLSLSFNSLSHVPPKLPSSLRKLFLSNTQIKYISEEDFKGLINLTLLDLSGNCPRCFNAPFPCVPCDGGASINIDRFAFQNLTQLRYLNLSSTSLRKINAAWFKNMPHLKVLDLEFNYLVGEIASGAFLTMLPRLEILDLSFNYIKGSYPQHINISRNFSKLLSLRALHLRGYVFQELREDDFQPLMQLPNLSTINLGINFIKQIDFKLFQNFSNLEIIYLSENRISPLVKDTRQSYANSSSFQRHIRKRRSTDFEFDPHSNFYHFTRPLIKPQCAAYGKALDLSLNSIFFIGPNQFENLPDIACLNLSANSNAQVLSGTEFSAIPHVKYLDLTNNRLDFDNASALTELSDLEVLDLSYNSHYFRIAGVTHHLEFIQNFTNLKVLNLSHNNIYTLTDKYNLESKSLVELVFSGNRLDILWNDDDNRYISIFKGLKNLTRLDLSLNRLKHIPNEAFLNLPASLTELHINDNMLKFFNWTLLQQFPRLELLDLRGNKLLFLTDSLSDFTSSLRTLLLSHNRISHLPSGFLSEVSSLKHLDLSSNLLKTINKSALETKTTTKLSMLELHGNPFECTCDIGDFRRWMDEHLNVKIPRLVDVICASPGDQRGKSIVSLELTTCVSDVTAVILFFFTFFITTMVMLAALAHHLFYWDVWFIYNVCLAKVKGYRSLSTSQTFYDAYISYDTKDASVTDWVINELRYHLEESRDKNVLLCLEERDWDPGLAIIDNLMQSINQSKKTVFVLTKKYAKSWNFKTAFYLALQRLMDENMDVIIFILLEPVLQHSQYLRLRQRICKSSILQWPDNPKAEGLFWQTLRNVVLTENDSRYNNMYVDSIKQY
Sequence of human TLR9 (Q9NR96 26-1032): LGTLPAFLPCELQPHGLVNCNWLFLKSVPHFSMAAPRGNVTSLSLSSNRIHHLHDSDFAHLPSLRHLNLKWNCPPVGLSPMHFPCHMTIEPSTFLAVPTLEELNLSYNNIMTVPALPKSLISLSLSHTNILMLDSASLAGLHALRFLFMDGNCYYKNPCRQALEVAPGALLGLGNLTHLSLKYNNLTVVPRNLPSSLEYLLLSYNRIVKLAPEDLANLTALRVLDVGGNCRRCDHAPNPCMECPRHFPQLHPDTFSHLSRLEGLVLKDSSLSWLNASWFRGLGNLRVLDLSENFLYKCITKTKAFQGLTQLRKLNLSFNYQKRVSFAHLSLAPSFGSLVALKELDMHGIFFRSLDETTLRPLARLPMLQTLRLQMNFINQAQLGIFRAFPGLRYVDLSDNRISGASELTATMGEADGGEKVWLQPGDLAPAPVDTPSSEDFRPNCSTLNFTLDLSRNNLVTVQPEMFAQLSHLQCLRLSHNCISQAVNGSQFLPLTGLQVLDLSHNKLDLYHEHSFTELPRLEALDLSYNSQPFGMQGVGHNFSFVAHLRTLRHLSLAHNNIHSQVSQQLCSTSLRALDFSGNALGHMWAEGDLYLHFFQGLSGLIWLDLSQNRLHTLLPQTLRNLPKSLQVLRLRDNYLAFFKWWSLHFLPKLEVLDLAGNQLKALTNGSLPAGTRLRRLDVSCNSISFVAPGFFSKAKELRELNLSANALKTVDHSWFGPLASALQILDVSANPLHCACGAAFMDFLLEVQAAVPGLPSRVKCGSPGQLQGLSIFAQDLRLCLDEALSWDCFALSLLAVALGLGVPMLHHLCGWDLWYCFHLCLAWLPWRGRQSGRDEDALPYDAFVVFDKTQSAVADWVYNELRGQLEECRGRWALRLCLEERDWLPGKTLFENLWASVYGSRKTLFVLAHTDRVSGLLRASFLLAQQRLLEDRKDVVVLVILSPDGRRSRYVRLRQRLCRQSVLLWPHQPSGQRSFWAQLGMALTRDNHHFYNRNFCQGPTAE
Sequence of human TLR7 (Q9NYK1 27-1049): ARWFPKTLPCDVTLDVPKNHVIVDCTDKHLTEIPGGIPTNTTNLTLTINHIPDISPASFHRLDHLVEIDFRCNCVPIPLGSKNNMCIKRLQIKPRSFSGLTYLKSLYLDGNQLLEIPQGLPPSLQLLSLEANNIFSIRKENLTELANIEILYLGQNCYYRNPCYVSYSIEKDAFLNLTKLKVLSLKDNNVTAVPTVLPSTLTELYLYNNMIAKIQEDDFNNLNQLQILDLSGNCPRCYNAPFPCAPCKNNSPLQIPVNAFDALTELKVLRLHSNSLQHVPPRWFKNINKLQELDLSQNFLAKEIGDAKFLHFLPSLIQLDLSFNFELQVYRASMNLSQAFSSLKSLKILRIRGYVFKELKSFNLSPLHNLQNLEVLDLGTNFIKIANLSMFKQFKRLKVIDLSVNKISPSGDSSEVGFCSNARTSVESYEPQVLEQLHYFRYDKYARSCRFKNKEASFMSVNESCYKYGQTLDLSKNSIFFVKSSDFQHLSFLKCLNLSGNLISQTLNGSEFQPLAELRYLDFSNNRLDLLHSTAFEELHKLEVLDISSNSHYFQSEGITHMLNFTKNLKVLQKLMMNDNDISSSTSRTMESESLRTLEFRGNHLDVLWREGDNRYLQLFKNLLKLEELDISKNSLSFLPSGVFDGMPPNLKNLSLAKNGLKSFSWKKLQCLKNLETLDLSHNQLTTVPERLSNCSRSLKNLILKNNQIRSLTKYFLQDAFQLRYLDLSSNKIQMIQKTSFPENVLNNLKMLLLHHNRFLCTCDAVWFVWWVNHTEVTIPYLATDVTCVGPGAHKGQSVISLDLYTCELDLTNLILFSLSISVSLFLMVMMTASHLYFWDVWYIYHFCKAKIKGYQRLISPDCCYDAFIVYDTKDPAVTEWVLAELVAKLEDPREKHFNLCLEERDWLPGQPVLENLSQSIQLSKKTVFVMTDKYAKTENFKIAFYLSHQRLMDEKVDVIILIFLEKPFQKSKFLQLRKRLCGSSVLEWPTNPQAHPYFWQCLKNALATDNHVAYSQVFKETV

`COc1ncc(CN2CCC(c3ccc4[nH]c(-c5ccnc(C)c5F)c(C(C)C)c4c3)CC2)cn1` [Example 731, 2-(3-fluoro-2-methylpyridin-4-yl)-3-isopropyl-5-(1-((2-methoxypyrimidin-5-yl)methyl)piperidin-4-yl)-1H-indole]: the values for the IC50 in test [1] (setting [4]), in test [2] (setting [5]) and in test [3] (setting [6]) were 1310 nM, 8.9 nM and 2.7 nM, respectively.

With `Cc1cc(-c2[nH]c3ccc(C4CCN(C(=O)CN(C)C)CC4)cc3c2C(C)C)ccn1` [Example 509, 2-(dimethylamino)-1-(4-(3-isopropyl-2-(2-methylpyridin-4-yl)-1H-indol-5-yl)piperidin-1-yl)ethan-1-one], the results for the IC50 in test [1] (setting [4]), in test [2] (setting [5]) and in test [3] (setting [6]) were 3710 nM, 20 nM and 21.9 nM, respectively.

In the case of `Cc1cc(-c2[nH]c3ccc(C4CCN(CC(=O)N(C)CC#N)CC4)cc3c2C(C)C)cc(C)n1` [Example 247, N-(cyanomethyl)-2-(4-(2-(2,6-dimethylpyridin-4-yl)-3-isopropyl-1H-indol-5-yl)piperidin-1-yl)-N-methylacetamide], the figures for the IC50 in test [1] (setting [4]), in test [2] (setting [5]) and in test [3] (setting [6]) were 462 nM, 3 nM and 4 nM, respectively.

For `Cc1cc(-c2[nH]c3ccc(C4CCN(CC(O)C(C)(C)C)CC4)cc3c2C(C)C)cc(C)n1` (stereo not drawn) [Example 850, 1-(4-(2-(2,6-dimethylpyridin-4-yl)-3-isopropyl-1H-indol-5-yl)piperidin-1-yl)-3,3-dimethylbutan-2-ol], the IC50 is 312 nM in test [1] (read-out: TLR9 IC50, HEK-Blue cells, ODN2006 5 nM); 3.8 nM in test [2] (HEK-Blue cells, gardiquimod 7.5 μM); 4.7 nM in test [3] (read-out: TLR8 IC50, HEK-Blue cells, R848 15.9 μM).

As for `Cc1cc(-c2[nH]c3ccc(C4CCN(C(=O)CN5CCCCS5(=O)=O)CC4)cc3c2C(C)C)cc(C)n1` [Example 167, 1-(4-(2-(2,6-dimethylpyridin-4-yl)-3-isopropyl-1H-indol-5-yl)piperidin-1-yl)-2-(1,1-dioxido-1,2-thiazinan-2-yl)ethan-1-one], the IC50 came out at 250 nM in test [1] (setting [4]), 5.9 nM in test [2] (setting [5]) and 50.9 nM in test [3] (setting [6]).

With `CCc1c(-c2ccnc(C)c2)[nH]c2ccc(C3CCN(C(=O)C4CCNC4)CC3)cc12` (stereo not drawn) [Example 633, (4-(3-ethyl-2-(2-methylpyridin-4-yl)-1H-indol-5-yl)piperidin-1-yl)(pyrrolidin-3-yl)methanone], the IC50 in test [1] (setting [4]) is 311 nM; in test [2] (setting [5]), 39 nM; in test [3] (setting [6]), 83.3 nM.

For `Cc1cc(-c2[nH]c3ccc(C4CCN(CC(=O)N5CC6(COC6)C5)CC4)cc3c2C(C)C)cc(C)n1` [Example 256, 2-(4-(2-(2,6-dimethylpyridin-4-yl)-3-isopropyl-1H-indol-5-yl)piperidin-1-yl)-1-(2-oxa-6-azaspiro[3.3]heptan-6-yl)ethan-1-one], the IC50 in test [1] (setting [4]) was 403 nM; in test [2] (setting [5]) it was 4.4 nM; in test [3] (setting [6]), 9.2 nM.

`Cc1cc(-c2[nH]c3ccc(C4CCN(Cc5cncs5)CC4)cc3c2C(C)C)c(F)cn1` [Example 688, 5-((4-(2-(5-fluoro-2-methylpyridin-4-yl)-3-isopropyl-1H-indol-5-yl)piperidin-1-yl)methyl)thiazole]: the IC50 in test [1] (setting [4]) was found to be 6190 nM; in test [2] (setting [5]), 12.1 nM; in test [3] (setting [6]), 2 nM.

Turning to `Cc1cc(-c2[nH]c3ccc(C4CCN(CC(=O)N5C[C@H](C)C[C@@H]5CO)CC4)cc3c2C(C)C)cc(C)n1` [Example 290, 2-(4-(2-(2,6-dimethylpyridin-4-yl)-3-isopropyl-1H-indol-5-yl)piperidin-1-yl)-1-((2R,4R)-2-(hydroxymethyl)-4-methylpyrrolidin-1-yl) ethan-1-one], the IC50 in test [1] (setting [4]) is 870 nM; in test [2] (setting [5]), 12 nM; in test [3] (setting [6]), 66.8 nM.

Consider `Cc1c(-c2[nH]c3ccc(C4CCNCC4)cc3c2C(C)C)ccnc1Cl` [Example 35, 2-(2-chloro-3-methylpyridin-4-yl)-3-isopropyl-5-(piperidin-4-yl)-1H-indole], for which the IC50 in test [1] (setting [4]) was found to be 4080 nM; in test [2] (setting [5]), 26.7 nM; in test [3] (setting [6]), 28.8 nM.

A word on the IC50: it is the point on the concentration scale where inhibition reaches its midpoint.
